The text below walks through data of patent US12558367B2, “Nicotinamide riboside and derivatives thereof in intravenous formulations and methods of use thereof” (ChromaDex Inc., priority 2023, dated 2026).

For data set [1], the system named is blood NAD+. The note with it: cited from earlier work.
The nature of data set [2]: Vital signs post-intervention (Study 1). The format is in vivo, human. The note with it: single 500 mg dose, mean (SD). The method, then:
(§1) The present randomized, double-blinded, placebo-controlled, pilot clinical study was initiated with the primary aim of investigating the safety, tolerability, and the blood NAD+-boosting efficacy of an acute, single dose of NR IV (500 mg, test), NAD+ IV (500 mg, active comparator), oral NR (500 mg, bridge), and saline IV (placebo control) in generally healthy adult participants. The study consisted of two parts; data from 37 and 16 participants in the first and second phases, respectively, were analyzed.
(§2) The safety of the IV infusion was evaluated using a combination of endpoints, including tolerable infusion rate, total number of adverse effects, participant vital signs, a complete blood count (CBC), a comprehensive metabolic panel (CMP), glucose and insulin levels, and the participant's self-reported subjective experience.
(§3) To assess vital signs and subdomains on the sleep and energy scales, between-groups comparisons were assessed using analysis of covariance (ANCOVA) with baseline scores as the covariate and a Bonferroni correction. Levene's test was used to check and confirm the assumption of homogeneity of variances.
For the first study, data from 37 patients were available for intent to treat analysis; for the second study, data from 16 patients were available for intent to treat analysis.

Data set [3] concerns whole blood NAD+. The data set can be described thus: NAD+ analysis of dried blood spots (DBS) by LC/MS. The note with it: dried blood spot. Type of data set: in vivo, human. The arrangement: Mean NAD: unit not given here. The method, then:
Finger punctures were conducted using a lancet. Blood was then applied to the circles on the dried blood spot (DBS) card and allowed to dry for a minimum of 3 hours. […] See, for example, FIG. 3. The use of dried blood spots (DBS) allowed for the analysis of NAD+ levels based upon samples that could be prepared at the clinic or by the study participants from home. While 36 of 37 participants in study 1 utilized the DBS at all time points, not all samples were analyzable. […] However, the model was significant for the 3-hour timepoint (p=0.010; […] At 6 hours, near-significant differences were observed between the NAD+ and NR IV group (t=1.99, p=0.055), and significant differences were observed between the NR IV and saline groups (t=−2.80, p=0.009), and between the NR IV and oral NR groups (t=−2.59, p=0.015). See, Tables 3-9 below. Tables 3-9 below reflect mean/SD for each group at each of the 7 timepoints. A basic ANOVA was conducted to investigate the data.

Data set [4] in a line: Clinical chemistry (comprehensive metabolic panel). Type of data set: in vivo, human. The note with it: Study 1. The protocol:
as §2
(§4) Between-groups comparisons of each outcome measured in the […] and CMP were evaluated using mixed between-within subjects ANOVA with the timepoint being the within subjects' factor and the group assignment as the between subjects factor. Mauchly's test of sphericity was used to confirm assumptions. Violations of the assumption of sphericity are addressed with the Greenhouse-Geisser correction.
(§5) Additional analyses were conducted using GraphPad Prism (Ver. 10.0.2). Statistical significance was determined as p<0.05, with comparisons of the test articles compared to saline or between group comparisons. 2way ANOVA with Tukey's multiple comparisons test with a single pooled variance was used to determine significance in hematology, clinical chemistry, and vitals. Time in chair was analyzed for study 1 by a one-way ANOVA with multiple comparisons, study 2 was analyzed by unpaired t-test. The baseline variable of age was analyzed for differences by one way ANOVA with multiple comparisons for study.

Data set [5] is described as follows: Sleep Scale, pilot clinical study (Study 1). The note with it: Sleep Scale Day 14, mean score. The format is in vivo, human. The protocol:
as §1
(§6) This was a 2-part study. The first study was a 4-arm randomized, placebo-controlled parallel trial. The 3 IV arms were double-blinded, while the 4th arm involved oral administration making it naturally unblinded. Participants were randomized at a 10:10:10:6 ratio to intravenous placebo (saline), NAD^+, NR, or oral NR (oral). The second study was a randomized parallel design trial with two arms for the purpose of evaluating the actual differences in infusion rates in real time. Participants were randomized at a 1:1 ratio to intravenous NR or NAD^+.
(§7) Vials of 50 mg/ml of NR or NAD+ were prepared in 10 ml of sterile water by DCA Pharmacy (Franklin, Tennessee) by prescription, for research administration only, and maintained in refrigerated conditions until use. For participants who were randomized to the test group or to the active comparator group, the NR or NAD+ was added to 500 ml of normal saline (B Braun 0.9% sodium chloride injection USP, preservative free) prior to intravenous administration. Those randomly assigned to the saline group received 500 ml of normal saline. Participants that were randomly assigned to the oral arm were provided with 500 mg of NR which was taken with water.
as §3
(§8) Tables A-D below reflect mean scores for each group at days 7 and 14. An ANCOVA was used to identify statistical significant differences, using baseline scores as the covariate which helps to account for the natural variation in psychological measurements, increasing the power of the study.
For the sleep scale, the greatest improvements were seen on the scale of sleep latency, which refers to the ability to fall asleep at night, and sleep-related cognitive effects.

The nature of data set [6]: Hematology (complete blood count). The note with it: baseline to three-hours post-infusion. The format is in vivo, human. The protocol: as §2, §4, §5
Data set [7] in a line: Energy/Fatigue Scale, randomized placebo-controlled pilot clinical study (Study 1). The format is in vivo, human. The note with it: for Mental Energy / Perceived Fatigue: possible scores 5-30; for General Energy / Motivation: possible scores 6-36; for Physical Energy: possible scores 7-42; for Emotional Energy: possible scores 8-48. The method, then:
as §1, §6, §7, §3, §8
It is noted that the energy scale measures disruptions to energy levels; lower scores reflect greater levels of energy.

The nature of data set [8]: Patient subjective experience and adverse event monitoring. The format is in vivo, human. The note with it: intervention and follow-up period up to 14 days. The method, then:
as §2
Adverse event monitoring began on the first day of the study and continued for 14 days (study one) or 7 days (study two). Participants were instructed to notify the research staff of any new or unusual symptoms during the trial and open-ended questions during data collection solicited unexpected side effects.

The mark [9] stands for this setting: Energy/Fatigue Scale Day 7, mean score, lower = greater energy.
Where [10] appears, read: Energy/Fatigue Scale Day 14, mean score, lower = greater energy.

In the case of `NC(=O)c1ccc[n+]([C@@H]2O[C@H](COP(=O)([O-])O)[C@@H](O)[C@H]2O)c1` [NMN, Nicotinamide mononucleotide], in data set [1] (300 mg in 100 mL saline, 5 mL/min IV, 10 healthy Japanese adults (Kimura et al.)), the safety and tolerability entry is “safe and well-tolerated”. For the same compound, the “blood NAD+ levels” value in data set [1] (intravenous NMN (Kimura et al.)) is “elevated blood NAD+ levels at multiple timepoints relative to baseline”.
As for `NC(=O)c1ccc[n+]([C@@H]2O[C@H](CO)[C@@H](O)[C@H]2O)c1.[Cl-]` [oral NR, nicotinamide riboside chloride], in data set [2], the “Post-intervention diastolic blood pressure” value was 71.00 (SD: 6.24) mmHg, the Post-intervention heart rate is 65.78 (SD: 7.95) beats per minute and the “Post-intervention systolic blood pressure” value is recorded as 108.56 (SD: 9.08) mmHg. The “Mean NAD” value in data set [3] (3 Hours Post-Intervention) was found to be 18.54. For the same compound, the “Mean NAD” value in data set [3] (6 Hours Post-Intervention) is on record as 18.01. Also, the “Mean NAD” value in data set [3] (24 Hours Post-Intervention) is 23.25. Further, the “Mean NAD” value in data set [3] (Baseline Scores) was 18.34. Moreover, in data set [3] (Immediately Post-Intervention (10 minutes after infusion)), the “Mean NAD” value was found to be 19.16. The “clinically relevant changes in comprehensive metabolic panel or CBC with differential” value in data set [4] was “did not display any clinically relevant changes”. For the same compound, the “Sleep Maintenance” value in data set [5] (possible scores 3-18) turned out to be 7.50. Also, the “Sleep Latency” value in data set [5] (possible scores 4-24) is listed as 10.00. Also, in data set [5] (possible scores 5-30), the “Cognitive Effects” value is on record as 16.36, the “Daytime Sleepiness” value turned out to be 15.63, the “Emotional Effects” value stood at 20.50 and the Productivity was 12.88. For the same compound, in data set [5] (possible scores 5-30), the “Sleep Inertia” value stood at 15.88. For the same compound, the “elevations in white blood cells and neutrophils” value in data set [6] is reported as “not observed”. In addition, in data set [7] (setting [9]), the “Mental Energy” value is 14.90, the “Perceived Fatigue” value came out at 14.10, the “General Energy” value is 23.20 and the Motivation is reported as 12.20. Further, in data set [7] (setting [9]), the “Emotional Energy” value was determined as 32.50. Moreover, the “Physical Energy” value in data set [7] (Energy/Fatigue Scale Day 7, mean score, lower scores = greater energy, single 500 mg dose) is listed as 19.80. For the same compound, in data set [7] (setting [10]), the “Mental Energy” value stood at 15.67, the “Perceived Fatigue” value amounted to 16.44, the “General Energy” value stood at 23.67 and the Motivation was 12.56. In addition, in data set [7] (setting [10]), the “Physical Energy” value was 20.00 and the “Emotional Energy” value is on record as 32.44. The “safety / attributable adverse events” value in data set [8] is “safe and well tolerated”.
